What all share (type): in vivo
For series [1], the system named is Echinochloa oryzacola Vasing. The series can be described thus: Test Example 1: herbicidal activity, application before weed generation in submerged conditions. As to conditions: Application herbicide amount 320 g/ha; Seventeenth Table. In outline: (§1)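 Water-diluted emulsion formulation is applied onto flood water (4 cm deep) covering alluvial soil on the day weed seeds are sown, after transplanting 2.5 leaf stage rice. Rates are expressed per hectare. Injury or control is graded 0–5 three weeks later.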

In another series the test system is Monochoria vaginalis. Described as above. As to conditions: Application herbicide amount 320 g/ha; Seventeenth Table. The procedure, abridged:
as §1

The test system of the next series is Scirpus juncoides. The description is as above. As to conditions: Application herbicide amount 320 g/ha; Seventeenth Table. In outline: as §1
Series [2] has as its system transplanted Oryza sativa. The series can be described thus: Test Example 1: effect on crop, application before weed generation in submerged conditions. As to conditions: Application herbicide amount 320 g/ha; Seventeenth Table. In outline: as §1
The next series concerns Abutilon theophrasti. The series can be described thus: Test Example 4: herbicidal effect by application to foliage (diluvial soil, plastic box). As to conditions: for M (Abutilon theophrasti) herbicidal effect: application to foliage, application herbicide amount 320 g/ha. In outline: (§2)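 Greenhouse plants (25° C. to 30° C., 14 d, diluvial soil) receive a foliar spray of water-diluted emulsifiable formulation at defined g/ha. Grading after 3 weeks uses a six-step herbicidal-ratio scale, with 4 covering 70% to <90% and 1 covering 5% to <20%.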

A further series has as its system Alopecurus myosuroides. The series is described as above. As to conditions: for J (Alopecurus myosuroides) herbicidal effect: application to foliage, application herbicide amount 320 g/ha. In outline: as §2
The test system of a further series is Apera spica-venti. The description is as above. As to conditions: for L (Apera spica-venti.) herbicidal effect: application to foliage, application herbicide amount 320 g/ha. In outline:
as §2

The subject of the next series is Avena fatua. The series is described as above. As to conditions: for I (Avena fatua) herbicidal effect: application to foliage, application herbicide amount 320 g/ha. The procedure, abridged: as §2
A further series deals with Chenopodium album. Described as above. As to conditions: for O (Chenopodium album) herbicidal effect: application to foliage, application herbicide amount 320 g/ha. In outline:
as §2

The next series has as its system Digitaria ciliaris. The description is as above. As to conditions: for F (Digitaria ciliaris) herbicidal effect: application to foliage, application herbicide amount 320 g/ha. In outline:
as §2

In series [3] the test system is Echinochloa crus-galli var. crus-galli. The description is as above. As to conditions: for H (Echinochloa crus-galli var. crus-galli) herbicidal effect: application to foliage, application herbicide amount 320 g/ha. The procedure, abridged: as §2
For a further series, the system named is Galium spurium. Described as above. As to conditions: for Q (Galium spurium) herbicidal effect: application to foliage, application herbicide amount 320 g/ha. In outline:
as §2

The test system of a further series is Lolium multiflorum Lam. Described as above. As to conditions: for K (Lolium multiflorum Lam.) herbicidal effect: application to foliage, application herbicide amount 320 g/ha. The procedure, abridged:
as §2

A further series concerns Setaria viridis. The series is described as above. As to conditions: for G (Setaria viridis) herbicidal effect: application to foliage, application herbicide amount 320 g/ha. In outline:
as §2

A further series has as its system Veronica persica. Described as above. As to conditions: for R (Veronica persica) herbicidal effect: application to foliage, application herbicide amount 320 g/ha. The procedure, abridged:
as §2

In series [4] the test system is Beta vulgaris ssp. vulgaris. The series can be described thus: Test Example 4: effect on crop by application to foliage (diluvial soil, plastic box). As to conditions: for f (Beta vulgaris ssp. vulgaris) effect on crop: application to foliage, application herbicide amount 320 g/ha. The procedure, abridged: as §2
For another series, the system named is Brassica campestris L. Described as above. As to conditions: for g (Brassica campestris L.) effect on crop: application to foliage, application herbicide amount 320 g/ha. In outline:
as §2

The subject of a further series is Glycine max. The description is as above. As to conditions: for c (Glycine max) effect on crop: application to foliage, application herbicide amount 320 g/ha. In outline:
as §2

The test system of a further series is Triticum aestivum. The description is as above. As to conditions: for e (Triticum aestivum) effect on crop: application to foliage, application herbicide amount 320 g/ha. The procedure, abridged:
as §2

Another series concerns Zea mays. The description is as above. As to conditions: for b (Zea mays) effect on crop: application to foliage, application herbicide amount 320 g/ha. The procedure, abridged: as §2
Series [5] has as its system directly sowed Oryza sativa. The series is described as above. As to conditions: for d (directly sowed Oryza sativa) effect on crop: application to foliage, application herbicide amount 320 g/ha. In outline:
as §2

[6] abbreviates: Application herbicide amount 320 g/ha.
[7] abbreviates: Application herbicide amount 320 g/ha, effect on crop.

Turning to `CSc1nnc2c(C(=O)Nc3nnc(C)o3)ccc(C(F)(F)F)n12` [1-018, N-(5-Methyl-1,3,4-oxadiazol-2-yl)-3-(methylthio)-5-(trifluoromethyl)-[1,2,4]triazol o[4,3-a]pyridine-8-carboxamide], the “A: Echinochloa oryzicola Vasing. (herbicidal effect grade)” value in series [1] is 1 (Herbicidal ratio of 5% or more and less than 20%). Also, in the series on Monochoria vaginalis, the “C: Monochoria vaginalis (herbicidal effect grade)” value (shortened to “C: Monochoria vaginalis”) is on record as 5 (Herbicidal ratio of 90% or more (almost completely withered)). Also, the “B: Scirpus juncoides (herbicidal effect grade)” value (“B: Scirpus juncoides” for short) in the series on Scirpus juncoides is 3 (Herbicidal ratio of 40% or more and less than 70%). Besides, the “a: transplanted Oryza sativa (effect on crop grade)” value (“a: transplanted Oryza sativa” for short) in [2] is 0 (Herbicidal ratio of 5% or less (almost no effect)). The “M (Abutilon theophrasti) herbicidal effect” value in the series on Abutilon theophrasti was 3 (Herbicidal ratio of 40% or more and less than 70%). Moreover, in the series with Alopecurus myosuroides, the “J (Alopecurus myosuroides) herbicidal effect” value is 0 (Herbicidal ratio of 5% or less (almost no effect)). Moreover, the “L (Apera spica-venti.) herbicidal effect” value in the series on Apera spica-venti. was 0 (Herbicidal ratio of 5% or less (almost no effect)). In addition, the “I (Avena fatua) herbicidal effect” value with Avena fatua is listed as 0 (Herbicidal ratio of 5% or less (almost no effect)). Further, the “O (Chenopodium album) herbicidal effect” value in the series on Chenopodium album was 5 (Herbicidal ratio of 90% or more (almost completely withered)). Further, the “F (Digitaria ciliaris) herbicidal effect” value in the series with Digitaria ciliaris is on record as 0 (Herbicidal ratio of 5% or less (almost no effect)). The “H (Echinochloa crus-galli var. crus-galli) herbicidal effect” value in [3] was 1 (Herbicidal ratio of 5% or more and less than 20%). The “Q (Galium spurium) herbicidal effect” value in the series on Galium spurium is recorded as 0 (Herbicidal ratio of 5% or less (almost no effect)). Moreover, the “K (Lolium multiflorum Lam.) herbicidal effect” value in the series with Lolium multiflorum Lam. was 0 (Herbicidal ratio of 5% or less (almost no effect)). Besides, the “G (Setaria viridis) herbicidal effect” value with Setaria viridis was 2 (Herbicidal ratio of 20% or more and less than 40%). In addition, the “R (Veronica persica) herbicidal effect” value with Veronica persica is 4 (Herbicidal ratio of 70% or more and less than 90%). For the same molecule, the “f (Beta vulgaris ssp. vulgaris) effect on crop” value in series [4] was 1 (Herbicidal ratio of 5% or more and less than 20%). The “g (Brassica campestris L.) effect on crop” value in the series with Brassica campestris L. was 0 (Herbicidal ratio of 5% or less (almost no effect)). Moreover, in the series with Glycine max, the “c (Glycine max) effect on crop” value is reported as 0 (Herbicidal ratio of 5% or less (almost no effect)). Besides, the “e (Triticum aestivum) effect on crop” value in the series with Triticum aestivum is on record as 0 (Herbicidal ratio of 5% or less (almost no effect)). Moreover, the “b (Zea mays) effect on crop” value in the series on Zea mays was 0 (Herbicidal ratio of 5% or less (almost no effect)). The “d (directly sowed Oryza sativa) effect on crop” value in series [5] is 0 (Herbicidal ratio of 5% or less (almost no effect)).

Regarding `Cc1nnc(NC(=O)c2ccc(C(F)(F)F)n3c(N(C)C)nnc23)o1` [1-076], the “A: Echinochloa oryzicola Vasing. (herbicidal effect grade)” value in [1] is 5 (Herbicidal ratio of 90% or more (almost completely withered)). The “C: Monochoria vaginalis” value in the series on Monochoria vaginalis is 4 (Herbicidal ratio of 70% or more and less than 90%). The “B: Scirpus juncoides” value with Scirpus juncoides was 4 (Herbicidal ratio of 70% or more and less than 90%). In addition, the “a: transplanted Oryza sativa” value in series [2] was 3 (Herbicidal ratio of 40% or more and less than 70%). Besides, in the series on Abutilon theophrasti (setting [6]), the M was 4 (Herbicidal ratio of 70% or more and less than 90%). Moreover, in the series on Alopecurus myosuroides (setting [6]), the J was 3 (Herbicidal ratio of 40% or more and less than 70%). Further, the L with Apera spica-venti. (setting [6]) was 4 (Herbicidal ratio of 70% or more and less than 90%). Moreover, the I in the series with Avena fatua (setting [6]) is 3 (Herbicidal ratio of 40% or more and less than 70%). The O with Chenopodium album (setting [6]) is on record as 5 (Herbicidal ratio of 90% or more (almost completely withered)). For the same molecule, the F with Digitaria ciliaris (setting [6]) was 5 (Herbicidal ratio of 90% or more (almost completely withered)). In addition, the H in series [3] (setting [6]) is given as 5 (Herbicidal ratio of 90% or more (almost completely withered)). Besides, the Q in the series on Galium spurium (setting [6]) was 2 (Herbicidal ratio of 20% or more and less than 40%). In the series on Lolium multiflorum Lam. (setting [6]), the K was 3 (Herbicidal ratio of 40% or more and less than 70%). Further, in the series on Setaria viridis (setting [6]), the G is given as 5 (Herbicidal ratio of 90% or more (almost completely withered)). Also, the R in the series with Veronica persica (setting [6]) is 4 (Herbicidal ratio of 70% or more and less than 90%). Further, the f in series [4] (setting [7]) is 5 (Herbicidal ratio of 90% or more (almost completely withered)). For the same molecule, in the series on Brassica campestris L. (setting [7]), the g was 4 (Herbicidal ratio of 70% or more and less than 90%). In addition, the c in the series on Glycine max (setting [7]) was 3 (Herbicidal ratio of 40% or more and less than 70%). Further, the e in the series on Triticum aestivum (setting [7]) is 3 (Herbicidal ratio of 40% or more and less than 70%). Further, the b in the series on Zea mays (setting [7]) is 0 (Herbicidal ratio of 5% or less (almost no effect)). Moreover, in [5] (setting [7]), the d is 3 (Herbicidal ratio of 40% or more and less than 70%).

For `Cc1nnc(NC(=O)c2ccc(C(F)(F)F)n3c(-c4ccc(F)cc4)nnc23)o1` [1-044], the “A: Echinochloa oryzicola Vasing. (herbicidal effect grade)” value in [1] is listed as 5 (Herbicidal ratio of 90% or more (almost completely withered)). In the series on Monochoria vaginalis, the “C: Monochoria vaginalis” value is 3 (Herbicidal ratio of 40% or more and less than 70%). Also, the “B: Scirpus juncoides” value with Scirpus juncoides was 3 (Herbicidal ratio of 40% or more and less than 70%). Also, the “a: transplanted Oryza sativa” value in series [2] was 1 (Herbicidal ratio of 5% or more and less than 20%). Besides, in the series with Abutilon theophrasti, the “M (Abutilon theophrasti) herbicidal effect” value is listed as 5 (Herbicidal ratio of 90% or more (almost completely withered)). For the same molecule, the “J (Alopecurus myosuroides) herbicidal effect” value in the series with Alopecurus myosuroides was 1 (Herbicidal ratio of 5% or more and less than 20%). In addition, the “L (Apera spica-venti.) herbicidal effect” value in the series on Apera spica-venti. is 4 (Herbicidal ratio of 70% or more and less than 90%). Besides, in the series with Avena fatua, the “I (Avena fatua) herbicidal effect” value was 1 (Herbicidal ratio of 5% or more and less than 20%). The “O (Chenopodium album) herbicidal effect” value with Chenopodium album is 5 (Herbicidal ratio of 90% or more (almost completely withered)). In the series on Digitaria ciliaris, the “F (Digitaria ciliaris) herbicidal effect” value is 4 (Herbicidal ratio of 70% or more and less than 90%). Further, the “H (Echinochloa crus-galli var. crus-galli) herbicidal effect” value in series [3] was 5 (Herbicidal ratio of 90% or more (almost completely withered)). For the same molecule, the “Q (Galium spurium) herbicidal effect” value with Galium spurium is 3 (Herbicidal ratio of 40% or more and less than 70%). Moreover, in the series on Lolium multiflorum Lam., the “K (Lolium multiflorum Lam.) herbicidal effect” value is 2 (Herbicidal ratio of 20% or more and less than 40%). Also, the “G (Setaria viridis) herbicidal effect” value in the series with Setaria viridis was 4 (Herbicidal ratio of 70% or more and less than 90%). In the series on Veronica persica, the “R (Veronica persica) herbicidal effect” value was 5 (Herbicidal ratio of 90% or more (almost completely withered)). Besides, in series [4], the “f (Beta vulgaris ssp. vulgaris) effect on crop” value was 5 (Herbicidal ratio of 90% or more (almost completely withered)). In addition, in the series on Brassica campestris L., the “g (Brassica campestris L.) effect on crop” value is 4 (Herbicidal ratio of 70% or more and less than 90%). In addition, the “c (Glycine max) effect on crop” value in the series with Glycine max is on record as 0 (Herbicidal ratio of 5% or less (almost no effect)). For the same molecule, the “e (Triticum aestivum) effect on crop” value in the series on Triticum aestivum is 0 (Herbicidal ratio of 5% or less (almost no effect)). For the same molecule, the “b (Zea mays) effect on crop” value in the series with Zea mays is on record as 0 (Herbicidal ratio of 5% or less (almost no effect)). Moreover, the “d (directly sowed Oryza sativa) effect on crop” value in series [5] was 3 (Herbicidal ratio of 40% or more and less than 70%).
